Patent US20030187261A1, “Purine derivatives, process for their preparation and use thereof” (priority 2000, published 2003)
Read-outs that look alike come from different tables or passages of the source.

Assays:
B16 melanoma = assay: MTT cytotoxicity assay, B16; format: cell-based, mouse; conditions: 72 hours (TCS50 in the method)
Text: (§1) One of the parameters used as the basis for colorimetric assays is the metabolic activity of viable cells. For example, a microtiter assay, which uses the tetrazolium salt MTT, is now widely used to quantitate cell proliferation and cytotoxicity. For instance, this assay is used in drug screening programs and in chemosensitivity testing. Because only metabolically active cells cleave tetrazolium salts, these assays detect viable cells exclusively. In the case of MTT assay, yellow soluble tetrazolium salt is reduced to coloured water-insoluble formazan salt. After it is solubilized, the formazan formed can easily and rapidly be quantified in a conventional ELISA plate reader at 570 nm (maximum absorbance). The quantity of reduced formazan corresponds to number of vital cells in the culture. Human T-lymphoblastic leukemia cell line CEM; promyelocytic HL-60 and monocytic U937 leukemias; breast carcinoma cell lines MCF-7, BT549, MDA-MB-231; glioblastoma U87MG cells; cervical carcinoma cells HELA; sarcoma cells U20S and Saos2; hepatocellular carcinoma HepG2; mouse immortalized bone marrow macrophages B2.4 and B10A.4; P388D1 and L1210 leukemia; B16 and B16F10 melanomas were used for routine screening of the compounds according to the invention. The cells were maintained in Nunc/Corning 80 cm^2 plastic tissue culture flasks and cultured in cell culture medium (DMEM with 5 g/l glucose, 2 mM glutamine, 100 U/ml penicillin, 100 μg/ml streptomycin, 10% fetal calf serum and sodium bicarbonate).
(§2) The cell suspensions that were prepared and diluted according to the particular cell type and the, expected target cell density (2500-30000 cells per well based on cell growth characteristics) were added by pipette (80 μl) into 96-well microtiter plates. Inoculates were allowed a pre-incubation period of 24 hours at 37° C. and 5% CO2 for stabilisation. Four-fold dilutions of the intended test concentration were added at time zero in 20 μl aliquots to the microtiter plate wells. Usually, test compound was evaluated at six 4-fold dilutions. In routine testing, the highest well concentration was 266.7 μM, but it can be the matter of change dependent on the agent. All drug concentrations were examined in duplicates. Incubations of cells with the test compounds lasted for 72 hours at 37° C., in 5% CO2 atmosphere and 100% humidity. At the end of incubation period, the cells were assayed by using the MTT. Ten microliters of the MTT stock solution were pipetted into each well and incubated further for 1-4 hours. After this incubation period, formazan was solubilized by addition of 100 μl/well of 10% SDS in water (pH=5.5) followed by further incubation at 37° C. overnight. The optical density (OD) was measured at 540 nm with the Labsystem iEMS Reader MF (UK). The tumour cell survival (TCS) was calculated using the following equation: TCS=(ODdrug exposed well/mean ODcontrol wells)×100%. The TCS50 value, the drug concentration lethal to 50% of the tumour cells, was calculated from the obtained dose response curves.
(§3) The cytoxicity of novel compounds was tested on panel of cell lines of different histogenetic and species origin (Table 7). Equal activities were found in all tumour cell lines tested. […] Importantly, this observation distinguishes the purine derivatives of the invention from flavopiridol and related compounds, as their biological activity is dependent on p53 status.

[1] = tested on: T-lymphoblastic leukemia cell line CEM; assay: MTT cytotoxicity assay, CEM; format: cell-based, human; conditions: 72 hours (TCS50 in the method)
Text: as §1, §2, §3

normal human lymphocytes = assay: concanavalin A induced lymphocyte proliferation, [3H]-TdR incorporation; format: cell-based; conditions: 72 hours, read-out: ED50 (the source's name)
Protocol: Human heparinized peripheral blood was obtained from healthy volunteers by cubital vein punction. The blood was diluted in PBS (1:3) and mononuclear cells were separated by centrifugation in Ficoll-Hypaque density gradient (Pharmacia, 1.077 g/ml) at 2200 rpm for 30 minutes. Following centrifugation, lymphocytes were washed in PBS and resuspended in cell culture medium (RMPI 1640, 2 mM glutamine, 100 U/ml penicillin, 100 μg/ml streptomycin, 10% fetal calf serum and sodium bicarbonate).
The cells were diluted at target density of 1100000 cells/ml and were added by pipette (180 μl) into 96/well microtiter plates. Four-fold dilutions of the intended test concentration were added at time zero in 20 μl aliquots to the microtiter plate wells. Usually, test compound was evaluated at six 4-fold dilutions. In routine testing, the highest well concentration was 266.7 μM. All drug concentrations were examined in duplicates. All wells with exception of unstimulated controls were activated with 50 μl of concanavalin A (25 μg/ml). Incubations of cells with test compounds lasted for 72 hours at 37° C., in 5% CO2 atmosphere and 100% humidity. At the end of incubation period, the cells were assayed by using the [^3H]-TdR:
Cell cultures were incubated with […] (20 μl of stock solution 500 μCi/ml) per well for 6 hours at 37° C. and 5% CO2. The automated cell harvester was used to lyse cells in water and adsorb the DNA onto glass-fiber filters in the format of microtiter plate. The DNA incorporated [^3H]-TdR was retained on the filter while unincorporated material passes through. The filters were dried at room temperature overnight, sealed into a sample bag with 10-12 ml of scintillant. The amount of [^3H]-TdR present in each filter (in cpm) was determined by scintillation counting in a Betaplate liquid scintillation counter. The effective dose of immunosuppressant (ED) was calculated using the following equation: ED=(cpmdrug exposed well/mean cpmcontrol wells)×100%. The EDs50 value, the drug concentration inhibiting proliferation of 50% of lymphocytes, was calculated from the obtained dose response curves.
To evaluate immunosuppressive activity of substituted adenines, their ability to inhibit polyclonal mitogen induced proliferation of normal human lymphocytes was analyzed (Table 8). […] Effective immunosuppressive dose of new derivatives under in vitro conditions was close to 1-20 μM.

IκB-α = IκB-α kinase-inhibitory activity; format: biochemical; conditions: Table 3
Text: Modification of 2,6,9-trisubstituted purines by a catechol-like substituent at R6 leads to an increase in cdk inhibitory activity of the tested compounds.

CDC2 = target: T1, CDC2 (Homo sapiens, UniProt P06493); assay: p34cdc2 (CDC2) kinase inhibition assay, histone H1 substrate; format: biochemical
T1 construct: made in house; host or cells: Sf9 insect cells, baculovirus co-infection
T1 sequence (P06493 whole entry, species assumed): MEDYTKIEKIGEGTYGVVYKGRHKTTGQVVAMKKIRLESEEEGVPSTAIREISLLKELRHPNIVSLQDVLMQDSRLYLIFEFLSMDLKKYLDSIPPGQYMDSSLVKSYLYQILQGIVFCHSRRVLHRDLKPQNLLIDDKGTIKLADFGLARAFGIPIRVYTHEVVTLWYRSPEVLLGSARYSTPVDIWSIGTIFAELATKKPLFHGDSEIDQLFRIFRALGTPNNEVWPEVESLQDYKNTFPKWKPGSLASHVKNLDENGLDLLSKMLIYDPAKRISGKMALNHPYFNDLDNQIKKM
T1 sequence (P14635 whole entry partner, species assumed): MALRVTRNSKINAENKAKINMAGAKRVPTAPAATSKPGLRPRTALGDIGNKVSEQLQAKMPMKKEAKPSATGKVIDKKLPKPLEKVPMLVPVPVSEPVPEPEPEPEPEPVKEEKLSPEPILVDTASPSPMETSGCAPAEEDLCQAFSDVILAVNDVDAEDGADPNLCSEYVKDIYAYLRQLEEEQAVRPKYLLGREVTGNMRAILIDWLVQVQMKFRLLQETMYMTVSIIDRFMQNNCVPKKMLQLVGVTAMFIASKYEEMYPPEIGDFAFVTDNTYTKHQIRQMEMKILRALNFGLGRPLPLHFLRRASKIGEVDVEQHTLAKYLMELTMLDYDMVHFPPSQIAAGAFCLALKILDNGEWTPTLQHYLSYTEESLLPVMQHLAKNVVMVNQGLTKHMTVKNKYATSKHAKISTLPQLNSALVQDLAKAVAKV

[2] = tested on: T-lymphocyte leukemia Molt3 cell line; assay: cell growth of Molt3 cell line, flow cytometric cell count; format: cell-based, human; conditions: 96 hours of culture
Protocol: Cell lines: Human leukemic cell lines were obtained from the American Type Culture Collection (ATCC, Rockville, Md., USA). They were cultured in Iscove's Modified Dulbecco's Medium (IMDM) supplemented with 10% heat inactivated fetal calf serum (FCS), 200 U/ml penicillin, 200 μg/ml streptomycin and 1 μg/ml amphotericin B. Cells were cultured in a 5% CO2-95% air fully humidified incubator. For effects on clonogenic output, 1000 cells/well were plated in duplicate in methylcellulose (0.9%), supplemented with 20% FCS and cultured for 14 days.
(§4) Cells were plated at 10000 per well in 200 μl IMDM medium and incubated with 0-50 μM of the compounds of the invention (Table 5), by addition of the drugs directly to the culture medium and incubated at 37° C. for 96 hours. Absolute cell number was determined by addition of a known concentration of Fluoresbrite microspheres (FITC) (Polysciences, Inc.). The absolute number of cells per well was calculated as: {(total number of beads added per well)/(number of beads measured)}×(number of measured cells in the gate of interest). All analyses were performed with a FACScan (BD), using CELLQuest software (Becton Dickinson).
The response of the myeloid leukemia KG1 and T-lymphocyte leukemia Molt3 cell lines to the cytostatic effect of the novel compounds was determined using the above-mentioned standardized bead suspension that was used to determine the absolute cell number by flow cytometric (FCM) measurement. Cells were grown in the presence of increasing concentrations of the compounds of the invention.

[3] = tested on: myeloid leukemia KG1 cell line; assay: cell growth of KG1 cell line, flow cytometric cell count; conditions: read-out: KGI IC50
Protocol: To determine reversibility of the effects of the new compounds, cells were plated at 10,000 per well and exposed to 0-50 μM of the composed, either continuously for 7 days (control) or only for 6 hours. In the latter case, cells were washed after 6 hours in phosphate-buffered-saline (PBS) (Life Technologies) and reseeded into drug-free medium for 7 days.

[4] = tested on: PHA-stimulated lymphocytes (PBMC); assay: cell number of PHA-stimulated lymphocytes (PBMC), flow cytometry; format: cell-based, human; conditions: 96 hours, in the presence of IL-2; for CC50: Homo sapiens, Lymphocyte, read-out: Lymphocytes IC50
Protocol: Human peripheral blood mononuclear cells were isolated by density gradient (Ficoll-Hypaque) (LSM, ICN Biomedicals Inc.). PBMC were stimulated with 5 μg/ml phytohemaglutinin A (PHA) (Sigma) during 24-48 hours in IMDM supplemented with 10% FCS (IMDM/10% FCS) at 37° C. After washing off the PHA, PBMC were incubated with interleukin-2 (IL-2) (10 U/ml) (Genzyme).
as §4
The novel compounds were tested for cytotoxicity on PHA-stimulated lymphocytes (PBMC), as one of the normal counterparts of the cell lines. Cells were grown for 96 hours in the presence of IL-2 and different concentrations of the novel compounds and cell number was counted on the flow cytometer.

[5] = Table 5, CDC2 activity in cell free system

| SMILES | IC50 (B16 melanoma) | IC50 [1] | EC50 (normal human lymphocytes) | further results |
| --- | --- | --- | --- | --- |
| CC(C)n1cnc2c(NCc3ccc(O)c(O)c3)nc(NCCO)nc21 | 32 µM | 35 µM | – | – |
| CC(C)n1cnc2c(N(C)CCc3ccc(O)c(O)c3)nc(NCCO)nc21 | 26 µM | 27 µM | 4 µM | – |
| CN(CCc1ccc(O)c(O)c1)c1nc(NCCO)nc2c1ncn2C | – | – | – | IC50 (IκB-α): 25.4 µM; IC50 (CDC2; Table 3): 10.2 µM |
| CCCCCCNc1nc(NCc2ccc(O)c(O)c2)c2ncn(C(C)C)c2n1 | 21 µM | 22 µM | – | – |
| CCCCCCNc1nc(N(C)CCc2ccc(O)c(O)c2)c2ncn(C(C)C)c2n1 | 32 µM | 33 µM | 15 µM | IC50 (CDC2; Table 3): 2.6 µM |
| CC(C)n1cnc2c(NCc3ccc(O)c(O)c3)nc(NC[C@@H](C)O)nc21 | 41 µM | 35 µM | – | – |
| CC(C)n1cnc2c(N(C)CCc3ccc(O)c(O)c3)nc(NC[C@@H](C)O)nc21 | 14 µM | 13 µM | 7 µM | – |
| CC(C)n1cnc2c(NC(CO)c3ccccc3)nc(NC[C@@H](C)O)nc21 (some centres unmarked) | 74.6 µM | 70 µM | 23 µM | – |
| CC(O)CNc1nc(NC(CO)c2ccccc2)c2ncn(C(C)C)c2n1 (centres unmarked) | – | – | – | IC50 (CDC2; Table 3): 0.6 µM |
| CC[C@@H](CO)Nc1nc(NCc2ccc(O)c(O)c2)c2ncn(C(C)C)c2n1 | 53 µM | 51 µM | – | – |
| CC[C@@H](CO)Nc1nc(N(C)CCc2ccc(O)c(O)c2)c2ncn(C(C)C)c2n1 | 34 µM | 36 µM | 1.8 µM | – |
| CC[C@@H](CO)Nc1nc(NC(CO)c2ccccc2)c2ncn(C(C)C)c2n1 (some centres unmarked) | 24 µM | 20 µM | 14 µM | – |
| CC(C)n1cnc2c(NCc3ccc(O)c(O)c3)nc(NC[C@H](C)O)nc21 | 10 µM | 12 µM | – | – |
| CC(C)n1cnc2c(N(C)CCc3ccc(O)c(O)c3)nc(NC[C@H](C)O)nc21 | 40 µM | 43 µM | 8 µM | – |
| CC(C)n1cnc2c(NC(CO)c3ccccc3)nc(NC[C@H](C)O)nc21 (some centres unmarked) | 5.6 µM | 8 µM | 27 µM | – |
| CC(C)n1cnc2c(NC(CO)c3ccccc3)nc(NCCO)nc21 (racemic) | 19 µM | 18 µM | 38 µM | IC50 (CDC2; Table 3): 1.4 µM |
| CC(C)n1cnc2c(NC(CO)c3ccccc3)nc(CCCCCC#N)nc21 (racemic) [P24, 2-(5-cyanopentyl)-6-[(R,S)-(1-phenyl-2-hydroxyethyl)amino]-9-isopropylpurine] | – | – | – | IC50 [2]: 42.5 ± 6 µM; IC50 ([3]; 96 hours of culture): 42 ± 4.8 µM; IC50 [4]: 33 ± 4.4 µM; IC50 (CDC2; [5]): 6.3 µM |
| CCCCCCNc1nc(NC(C)c2ccc(O)c(O)c2)c2ncn(C(C)C)c2n1 (centres unmarked) [P17] | – | – | – | IC50 [2]: 24 ± 6.2 µM; IC50 ([3]; 96 hours of culture): 35.3 ± 5.7 µM; IC50 [4]: 18 ± 2.8 µM; IC50 (CDC2; [5]): 1 µM |
| CC(Nc1nc(NCCCO)nc2c1ncn2C(C)C)c1ccc(O)c(O)c1 (centres unmarked) [P18] | – | – | – | IC50 [2]: 23 ± 2.8 µM; IC50 ([3]; 96 hours of culture): 18.7 ± 0.3 µM; IC50 [4]: 14.9 ± 2.9 µM; IC50 (CDC2; [5]): 2.6 µM |
| CC[C@H](CO)Nc1nc(NCc2ccc(O)cc2)c2ncn(C(C)C)c2n1 [P19] | – | – | – | IC50 [2]: 15 ± 2 µM; IC50 ([3]; 96 hours of culture): 11 ± 1.3 µM; IC50 [4]: 6 µM |
| CC(Nc1nc(NCCCO)nc2c1ncn2C(C)C)c1ccc(O)c(O)c1 (centres unmarked) [P20] | – | – | – | IC50 [4]: 35 ± 7.3 µM |
| Cn1cnc2c(NC(CO)c3ccccc3)nc(N3CCOCC3)nc21 (centres unmarked) [P21, 2-(morpholino)-6-(1-phenyl-2-hydroxyethylamino)-9-methylpurine] | – | – | – | IC50 ([2]; Homo sapiens, MOLT-3): 50 ± 1.3 µM; IC50 ([3]; Homo sapiens, KG-1, 96 h): 48 ± 1.5 µM; CC50 [4]: 40 ± 7.7 µM; IC50 (CDC2; [5]): 6.5 µM |
| CC(C)n1cnc2c(NC(CO)c3ccccc3)nc(SCCO)nc21 (centres unmarked) [P22, 2-(2-hydroxyethylthio)-6-(1-phenyl-2-hydroxyethylamino)-9-isopropylpurine] | – | – | – | IC50 ([2]; Homo sapiens, MOLT-3): 17 ± 1.7 µM; IC50 ([3]; Homo sapiens, KG-1, 96 h): 13 ± 1.4 µM; CC50 [4]: 11 ± 1.5 µM; IC50 (CDC2; [5]): 3.8 µM |
| CC(C)n1cnc2c(SCc3ccccc3)nc(NCCCO)nc21 [P25, 2-(3-hydroxypropylamino)-6-benzylthio-9-isopropylpurine] | – | – | – | IC50 ([2]; Homo sapiens, MOLT-3): 19 ± 2 µM; IC50 ([3]; Homo sapiens, KG-1, 96 h): 42 ± 5 µM; CC50 [4]: 18 ± 1.6 µM; IC50 (CDC2; [5]): > 100 µM |
| CC(C)n1cnc2c(NC(CO)c3ccccc3)nc(NCC(O)CO)nc21 [P26, 2-(2,3-dihydroxypropylamino)-6-[(R,S)-(1-phenyl-2-hydroxyethyl)amino]-9-isopropylpurine] | – | – | – | IC50 ([2]; Homo sapiens, MOLT-3): 23.7 ± 3.4 µM; IC50 ([3]; Homo sapiens, KG-1, 96 h): 20 ± 1 µM; CC50 [4]: 20 ± 1 µM; IC50 (CDC2; [5]): > 100 µM |
